Results: ChEMBL document CHEMBL2074404, “Regulation of multidrug resistance-associated protein 2 (ABCC2) by the nuclear receptors pregnane X receptor, farnesoid X-activated receptor, and constitutive androstane receptor” (J Biol Chem, 2002)

Experiments:
[1] = molecular target: T1, ATP-binding cassette sub-family C member 2 (Homo sapiens, UniProt Q92887); assay: (§1) TP_TRANSPORTER: Northern blot in vitro, primary hepatocytes; format: functional, cell-based, Hepatocyte
[2] = molecular target: T1, ATP-binding cassette sub-family C member 2; assay: TP_TRANSPORTER: Northern blot from HepG2 cells; format: functional, cell-based
[3] = molecular target: ATP-binding cassette sub-family C member 2 (Rattus norvegicus, UniProt Q63120); assay: as §1; format: functional, cell-based, Hepatocyte
Bile salt export pump = molecular target: T2, Bile salt export pump (Rattus norvegicus, UniProt O70127); assay: as §1; format: functional, cell-based, Hepatocyte
T2 sequence (O70127 whole entry): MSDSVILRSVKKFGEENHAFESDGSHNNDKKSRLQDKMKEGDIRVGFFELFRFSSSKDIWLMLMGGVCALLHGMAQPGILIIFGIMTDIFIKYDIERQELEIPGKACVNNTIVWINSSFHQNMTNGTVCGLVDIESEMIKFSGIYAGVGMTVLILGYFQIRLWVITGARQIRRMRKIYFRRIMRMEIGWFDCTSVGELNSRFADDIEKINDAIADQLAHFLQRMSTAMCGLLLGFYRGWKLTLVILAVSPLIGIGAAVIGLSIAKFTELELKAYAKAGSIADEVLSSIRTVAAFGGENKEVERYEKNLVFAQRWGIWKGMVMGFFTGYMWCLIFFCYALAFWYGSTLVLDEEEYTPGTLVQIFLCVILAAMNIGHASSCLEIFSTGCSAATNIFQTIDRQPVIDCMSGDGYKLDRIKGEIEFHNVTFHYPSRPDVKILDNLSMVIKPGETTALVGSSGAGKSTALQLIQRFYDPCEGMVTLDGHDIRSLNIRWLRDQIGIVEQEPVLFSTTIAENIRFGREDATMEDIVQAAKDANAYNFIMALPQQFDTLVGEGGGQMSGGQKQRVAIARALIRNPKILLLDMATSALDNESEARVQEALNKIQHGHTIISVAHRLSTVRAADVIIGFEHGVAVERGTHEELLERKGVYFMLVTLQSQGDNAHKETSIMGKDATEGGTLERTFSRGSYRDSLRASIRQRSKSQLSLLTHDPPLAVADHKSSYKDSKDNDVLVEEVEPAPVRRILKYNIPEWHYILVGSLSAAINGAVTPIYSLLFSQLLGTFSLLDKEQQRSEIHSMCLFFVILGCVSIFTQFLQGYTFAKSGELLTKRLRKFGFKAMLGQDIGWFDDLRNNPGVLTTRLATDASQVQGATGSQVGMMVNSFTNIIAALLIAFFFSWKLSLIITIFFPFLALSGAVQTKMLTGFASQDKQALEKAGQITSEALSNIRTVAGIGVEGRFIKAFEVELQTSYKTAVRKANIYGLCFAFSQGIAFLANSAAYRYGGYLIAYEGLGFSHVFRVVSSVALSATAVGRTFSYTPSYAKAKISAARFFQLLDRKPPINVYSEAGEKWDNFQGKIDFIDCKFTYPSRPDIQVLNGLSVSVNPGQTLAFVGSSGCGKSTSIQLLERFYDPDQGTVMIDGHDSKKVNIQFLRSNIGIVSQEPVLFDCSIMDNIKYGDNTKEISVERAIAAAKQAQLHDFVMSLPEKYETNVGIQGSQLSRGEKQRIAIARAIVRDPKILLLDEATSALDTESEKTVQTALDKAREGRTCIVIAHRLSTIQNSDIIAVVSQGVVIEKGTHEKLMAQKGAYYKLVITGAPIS

[4] = molecular target: ATP-binding cassette sub-family C member 2 (Mus musculus, UniProt Q8VI47); assay: as §1; format: functional, cell-based, Hepatocyte
Sequence of ATP-binding cassette sub-family C member 2 (Mus musculus, UniProt Q8VI47) (Q8VI47 whole entry): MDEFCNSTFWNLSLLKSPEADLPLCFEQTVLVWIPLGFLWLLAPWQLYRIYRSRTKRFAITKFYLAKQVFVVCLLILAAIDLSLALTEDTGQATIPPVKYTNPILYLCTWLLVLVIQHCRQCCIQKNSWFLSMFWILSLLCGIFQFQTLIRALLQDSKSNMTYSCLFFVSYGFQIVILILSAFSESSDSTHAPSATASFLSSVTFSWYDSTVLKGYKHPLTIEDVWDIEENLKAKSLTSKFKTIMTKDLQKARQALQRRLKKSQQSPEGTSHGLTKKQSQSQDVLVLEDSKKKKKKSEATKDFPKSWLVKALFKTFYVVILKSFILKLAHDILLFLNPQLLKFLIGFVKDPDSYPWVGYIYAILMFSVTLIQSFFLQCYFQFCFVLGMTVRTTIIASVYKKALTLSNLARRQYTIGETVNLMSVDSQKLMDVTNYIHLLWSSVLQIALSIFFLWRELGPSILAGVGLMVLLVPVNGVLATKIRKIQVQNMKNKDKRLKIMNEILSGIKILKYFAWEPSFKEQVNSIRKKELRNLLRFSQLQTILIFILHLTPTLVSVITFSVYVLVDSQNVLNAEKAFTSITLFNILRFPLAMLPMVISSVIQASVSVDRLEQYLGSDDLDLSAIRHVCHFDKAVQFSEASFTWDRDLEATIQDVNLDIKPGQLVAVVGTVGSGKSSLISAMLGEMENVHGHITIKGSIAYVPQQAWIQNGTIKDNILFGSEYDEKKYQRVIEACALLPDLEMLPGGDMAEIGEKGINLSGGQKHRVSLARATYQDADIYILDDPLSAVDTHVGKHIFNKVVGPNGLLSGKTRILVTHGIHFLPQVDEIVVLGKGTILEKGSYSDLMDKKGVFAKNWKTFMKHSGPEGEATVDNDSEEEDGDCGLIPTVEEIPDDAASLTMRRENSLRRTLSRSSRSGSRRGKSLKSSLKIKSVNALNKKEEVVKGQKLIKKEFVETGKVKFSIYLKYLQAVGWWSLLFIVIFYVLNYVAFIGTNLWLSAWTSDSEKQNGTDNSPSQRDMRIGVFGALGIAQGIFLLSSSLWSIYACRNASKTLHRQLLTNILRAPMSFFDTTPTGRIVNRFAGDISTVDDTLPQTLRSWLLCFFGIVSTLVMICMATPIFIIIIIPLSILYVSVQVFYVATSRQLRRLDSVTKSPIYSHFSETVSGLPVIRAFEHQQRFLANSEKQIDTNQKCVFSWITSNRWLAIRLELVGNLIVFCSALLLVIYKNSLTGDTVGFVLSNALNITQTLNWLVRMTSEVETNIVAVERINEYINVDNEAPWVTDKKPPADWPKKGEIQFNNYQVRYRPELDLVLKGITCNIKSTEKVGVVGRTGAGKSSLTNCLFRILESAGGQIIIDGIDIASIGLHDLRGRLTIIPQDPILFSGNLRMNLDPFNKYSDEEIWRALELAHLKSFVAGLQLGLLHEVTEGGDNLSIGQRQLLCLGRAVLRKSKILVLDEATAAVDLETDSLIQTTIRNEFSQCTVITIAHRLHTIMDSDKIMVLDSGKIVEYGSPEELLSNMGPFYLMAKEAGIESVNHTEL

T1 sequence (Q92887 whole entry): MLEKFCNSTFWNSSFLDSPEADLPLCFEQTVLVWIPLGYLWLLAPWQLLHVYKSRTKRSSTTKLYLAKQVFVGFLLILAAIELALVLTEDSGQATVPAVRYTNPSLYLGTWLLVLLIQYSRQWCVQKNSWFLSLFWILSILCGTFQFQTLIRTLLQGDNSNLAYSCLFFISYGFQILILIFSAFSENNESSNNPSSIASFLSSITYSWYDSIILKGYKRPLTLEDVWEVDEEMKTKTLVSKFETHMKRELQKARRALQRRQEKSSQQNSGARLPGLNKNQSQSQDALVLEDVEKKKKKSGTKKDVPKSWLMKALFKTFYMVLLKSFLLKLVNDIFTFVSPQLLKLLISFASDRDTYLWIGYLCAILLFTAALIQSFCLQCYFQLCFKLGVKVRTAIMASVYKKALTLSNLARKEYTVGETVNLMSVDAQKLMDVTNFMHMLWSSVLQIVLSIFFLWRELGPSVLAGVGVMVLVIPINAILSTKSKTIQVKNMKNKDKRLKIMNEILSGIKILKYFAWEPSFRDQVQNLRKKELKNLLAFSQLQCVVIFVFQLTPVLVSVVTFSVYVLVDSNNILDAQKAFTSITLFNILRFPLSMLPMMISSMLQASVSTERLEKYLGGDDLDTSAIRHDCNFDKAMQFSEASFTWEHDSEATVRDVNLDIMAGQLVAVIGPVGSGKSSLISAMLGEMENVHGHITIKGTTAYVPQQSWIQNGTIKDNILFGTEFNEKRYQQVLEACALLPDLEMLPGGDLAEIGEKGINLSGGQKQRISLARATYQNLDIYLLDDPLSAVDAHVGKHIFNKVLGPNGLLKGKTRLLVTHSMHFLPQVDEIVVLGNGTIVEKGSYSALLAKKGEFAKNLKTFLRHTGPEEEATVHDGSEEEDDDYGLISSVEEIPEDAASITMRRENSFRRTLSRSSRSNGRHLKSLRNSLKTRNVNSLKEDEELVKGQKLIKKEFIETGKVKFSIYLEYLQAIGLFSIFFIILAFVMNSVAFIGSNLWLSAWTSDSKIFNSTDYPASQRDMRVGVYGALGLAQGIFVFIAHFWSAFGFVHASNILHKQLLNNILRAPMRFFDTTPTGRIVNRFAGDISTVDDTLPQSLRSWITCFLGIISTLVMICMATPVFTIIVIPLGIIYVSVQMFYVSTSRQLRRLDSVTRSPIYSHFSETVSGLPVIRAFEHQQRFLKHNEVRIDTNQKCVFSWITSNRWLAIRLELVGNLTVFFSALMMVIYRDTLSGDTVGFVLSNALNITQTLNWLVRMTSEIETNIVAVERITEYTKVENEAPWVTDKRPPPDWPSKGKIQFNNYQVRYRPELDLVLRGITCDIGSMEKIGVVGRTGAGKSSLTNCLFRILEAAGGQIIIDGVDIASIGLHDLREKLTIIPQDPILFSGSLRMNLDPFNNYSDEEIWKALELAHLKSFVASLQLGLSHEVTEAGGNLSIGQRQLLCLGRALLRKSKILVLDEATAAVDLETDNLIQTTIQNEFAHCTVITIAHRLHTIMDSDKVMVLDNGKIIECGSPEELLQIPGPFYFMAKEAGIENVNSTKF
Sequence of ATP-binding cassette sub-family C member 2 (Rattus norvegicus, UniProt Q63120) (Q63120 whole entry): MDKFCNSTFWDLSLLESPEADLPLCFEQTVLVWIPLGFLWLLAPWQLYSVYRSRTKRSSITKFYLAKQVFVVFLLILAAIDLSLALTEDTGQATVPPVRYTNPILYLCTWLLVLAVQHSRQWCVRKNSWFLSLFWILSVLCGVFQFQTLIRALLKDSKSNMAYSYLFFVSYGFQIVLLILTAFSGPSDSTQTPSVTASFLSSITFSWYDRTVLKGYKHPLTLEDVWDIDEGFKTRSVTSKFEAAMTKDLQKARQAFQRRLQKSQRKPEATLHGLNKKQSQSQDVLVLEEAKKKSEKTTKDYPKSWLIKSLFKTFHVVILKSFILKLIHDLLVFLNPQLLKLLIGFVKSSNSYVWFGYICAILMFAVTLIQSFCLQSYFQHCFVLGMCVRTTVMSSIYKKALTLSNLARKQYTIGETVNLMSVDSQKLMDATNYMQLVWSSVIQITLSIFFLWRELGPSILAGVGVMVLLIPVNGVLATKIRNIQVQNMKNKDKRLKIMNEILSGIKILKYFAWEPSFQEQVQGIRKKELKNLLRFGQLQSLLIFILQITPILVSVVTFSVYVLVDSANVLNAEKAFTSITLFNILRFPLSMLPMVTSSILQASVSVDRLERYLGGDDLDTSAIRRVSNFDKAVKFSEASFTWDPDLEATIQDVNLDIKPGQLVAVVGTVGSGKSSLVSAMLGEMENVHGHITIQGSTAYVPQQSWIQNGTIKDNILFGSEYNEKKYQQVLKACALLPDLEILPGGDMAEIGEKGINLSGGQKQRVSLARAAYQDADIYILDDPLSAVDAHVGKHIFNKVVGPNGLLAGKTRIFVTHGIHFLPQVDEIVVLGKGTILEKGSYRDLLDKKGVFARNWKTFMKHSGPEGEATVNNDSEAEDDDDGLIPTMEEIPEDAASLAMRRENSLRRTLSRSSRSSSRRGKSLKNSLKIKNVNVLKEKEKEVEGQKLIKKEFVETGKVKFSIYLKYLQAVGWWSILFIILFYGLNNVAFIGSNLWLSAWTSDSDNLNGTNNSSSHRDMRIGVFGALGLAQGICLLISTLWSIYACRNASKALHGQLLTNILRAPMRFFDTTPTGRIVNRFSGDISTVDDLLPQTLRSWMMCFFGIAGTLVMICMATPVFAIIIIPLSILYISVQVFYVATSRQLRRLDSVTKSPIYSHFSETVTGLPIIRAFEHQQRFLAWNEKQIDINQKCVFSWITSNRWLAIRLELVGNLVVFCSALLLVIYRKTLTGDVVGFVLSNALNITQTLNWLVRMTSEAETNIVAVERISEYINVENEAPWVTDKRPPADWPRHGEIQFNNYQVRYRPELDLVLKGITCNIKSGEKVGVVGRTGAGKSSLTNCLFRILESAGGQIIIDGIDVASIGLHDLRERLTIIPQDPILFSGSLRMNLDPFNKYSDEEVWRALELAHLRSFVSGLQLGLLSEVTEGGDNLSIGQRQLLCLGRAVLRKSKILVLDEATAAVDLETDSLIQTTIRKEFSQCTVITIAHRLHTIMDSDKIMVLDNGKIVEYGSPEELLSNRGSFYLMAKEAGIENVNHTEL

Row | SMILES | Activity [1] | Activity [2] | Activity [3] | Activity (Bile salt export pump) | Activity [4]
1 | CC(C)=CCC[C@]1(C)[C@@H](CC=C(C)C)C[C@]2(CC=C(C)C)C(=O)C(CC=C(C)C)=C(O)[C@@]1(C(=O)C(C)C)C2=O | inducer [+] |  |  |  | 
2 | CC(C)c1onc(-c2c(Cl)cccc2Cl)c1COc1ccc(/C=C/c2cccc(C(=O)O)c2)c(Cl)c1 |  | inducer [+] | inducer [+] | inducer [+] | 
3 | C[C@H](CCC(=O)O)[C@H]1CC[C@H]2[C@@H]3[C@H](O)C[C@@H]4C[C@H](O)CC[C@]4(C)[C@H]3CC[C@]12C [CHENODIOL] |  | inducer [+] |  |  | 
4 | CCC1(c2ccccc2)C(=O)NC(=O)NC1=O [PHENOBARBITAL] |  |  |  | inducer [+] | inducer [+]
5 | CC(=O)[C@H]1[C@H](C#N)C[C@H]2[C@@H]3CC=C4C[C@@H](O)CC[C@]4(C)[C@H]3CC[C@@]21C [PREGNENOLONE CARBONITRILE] |  |  | inducer [+] | inducer [+] | inducer [+]
